Several values for one entry are separate records, joined by “and”; a condition that tells them apart may be missing. Identical values can stand only once. Toxic doses and inconclusive results are not listed. The calls were made as follows: active = survival T/C of 150% or more; inactive = T/C below 125% in these data.
Test system: CD2F1 mice, L1210 leukemia ip, survival T/C
Experiment: NCI In Vivo Anticancer Drug Screen. Data for tumor model L1210 Leukemia (intraperitoneal) in CD2F1 (CDF1) mice
Settings: endpoint: mean survival time, higher = longer survival
In short: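 Each value reflects a quotient of treated over vehicle control outcomes in mice with a transplanted tumor.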

[1] = dose: 75.0 mg/kg/injection, schedule: Q01DX001 (ip), vehicle: saline
[2] = dose: 150.0 mg/kg/injection, schedule: Q01DX001 (ip), vehicle: saline
[3] = dose: 100.0 mg/kg/injection, schedule: Q04DX002 (ip), vehicle: saline with Tween-80
[4] = dose: 25.0 mg/kg/injection, schedule: Q04DX003 (ip), vehicle: DMSO
[5] = dose: 50.0 mg/kg/injection, schedule: Q04DX003 (ip), vehicle: DMSO
[6] = dose: 50.0 mg/kg/injection, schedule: Q01DX009 (ip), vehicle: saline with Tween-80
[7] = dose: 100.0 mg/kg/injection, schedule: Q01DX009 (ip), vehicle: saline with Tween-80
[8] = dose: 200.0 mg/kg/injection, schedule: Q01DX009 (ip), vehicle: saline with Tween-80
[9] = dose: 100.0 mg/kg/injection, schedule: Q04DX003 (ip), vehicle: saline with Tween-80
[10] = dose: 200.0 mg/kg/injection, schedule: Q04DX003 (ip), vehicle: saline with Tween-80
[11] = dose: 400.0 mg/kg/injection, schedule: Q04DX003 (ip), vehicle: saline with Tween-80
[12] = dose: 400.0 mg/kg/injection, schedule: Q01DX009 (ip), vehicle: saline with Tween-80
[13] = dose: 200.0 mg/kg/injection, schedule: Q04DX002 (ip), vehicle: saline with Tween-80
[14] = dose: 400.0 mg/kg/injection, schedule: Q04DX002 (ip), vehicle: saline with Tween-80

Measured: T/C

CC(=O)C(N=Nc1cccc2c1C(=O)c1ccccc1C2=O)C(=O)Nc1ccccc1C (stereo not drawn)
inactive: [1] 98 % of control | [2] 93 % of control | dose: 300.0 mg/kg/injection, schedule: Q01DX001 (ip), vehicle: saline 96 % of control

CNC(CCNCCc1ccccc1)CNCCc1ccccc1 (stereo not drawn)
inactive: [1] 97 % of control | [2] 107 % of control

CC(C)(C)c1ccc(SC(=O)c2ccc(C(=O)Sc3ccc(C(C)(C)C)cc3)cc2)cc1
inactive: dose: 25.0 mg/kg/injection, schedule: Q04DX002 (ip), vehicle: saline with Tween-80 91 % of control | dose: 50.0 mg/kg/injection, schedule: Q04DX002 (ip), vehicle: saline with Tween-80 87 % of control | [3] 91 % of control and 102 % of control

Nc1ncc2ccccc2c1-c1ccc(NC(=O)CCCl)cc1
inactive: [4] 98 % of control | [5] 102 % of control | dose: 100.0 mg/kg/injection, schedule: Q04DX003 (ip), vehicle: DMSO 95 % of control | dose: 200.0 mg/kg/injection, schedule: Q04DX003 (ip), vehicle: DMSO 102 % of control | dose: 400.0 mg/kg/injection, schedule: Q04DX003 (ip), vehicle: DMSO 90 % of control

Cc1ccc(NC(=O)OCCOc2ccccc2Cl)cc1C
inactive: [6] 96 % of control | [7] 93 % of control | [8] 93 % of control

CCOC(=O)c1c(N)sc2c1CCN(Cc1ccccc1)C2
inactive: [9] 98 % of control | [10] 93 % of control | [11] 88 % of control

CCCCCCCCCCCCCCCC/C(=C\c1ccc2ccccc2c1)[N+](=O)[O-]
inactive: dose: 75.0 mg/kg/injection, schedule: Q01DX001 (ip), vehicle: other 106 % of control | dose: 150.0 mg/kg/injection, schedule: Q01DX001 (ip), vehicle: other 96 % of control | dose: 300.0 mg/kg/injection, schedule: Q01DX001 (ip), vehicle: other 95 % of control

COc1ccc2c(c1OC(C)=O)-c1cc(O)cc3c1C(C2)N(C(=O)CN(CCCl)CCCl)CC3 (stereo not drawn)
inactive: dose: 6.25 mg/kg/injection, schedule: Q04DX003 (ip), vehicle: DMSO 98 % of control | dose: 12.5 mg/kg/injection, schedule: Q04DX003 (ip), vehicle: DMSO 91 % of control | [4] 100 % of control | [5] 102 % of control

N#CC12C(=N)CCC1C1CC2C2C3C=CC(C3)C12 (stereo not drawn)
inactive: [9] 96 % of control | [10] 96 % of control | [11] 95 % of control

CNC(C)C(O)c1ccccc1 (stereo not drawn)
inactive: [6] 100 % of control | [7] 97 % of control

CN(C)c1ccc(-c2nnc(-c3ccc(N(C)C)cc3)nn2)cc1
inactive: [9] 93 % of control | [10] 92 % of control | [11] 95 % of control

COc1ccc(N=c2ssc(SC)c2-c2ccccc2)cc1
inactive: dose: 100.0 mg/kg/injection, schedule: Q01DX001 (ip), vehicle: saline with Tween-80 102 % of control | [7] 103 % of control | [9] 101 % of control | dose: 200.0 mg/kg/injection, schedule: Q01DX001 (ip), vehicle: saline with Tween-80 100 % of control | [8] 102 % of control | [10] 102 % of control | dose: 400.0 mg/kg/injection, schedule: Q01DX001 (ip), vehicle: saline with Tween-80 102 % of control | [12] 103 % of control | [11] 98 % of control

CN(CCS(=O)(=O)O)/N=C/c1ccc2c(c1)OCO2
inactive: dose: 25.0 mg/kg/injection, schedule: Q04DX003 (ip), vehicle: acetone 97 % of control | dose: 50.0 mg/kg/injection, schedule: Q04DX003 (ip), vehicle: acetone 103 % of control | dose: 100.0 mg/kg/injection, schedule: Q04DX003 (ip), vehicle: acetone 98 % of control

COc1ccc(C(C(N)=O)N2CCCC2)cc1 (stereo not drawn)
inactive: [7] 89 % of control | [8] 90 % of control

CC(C)CC(NC(=O)OCc1ccccc1)C(=O)NCCCCCCCCCCNC(=O)C(CC(C)C)NC(=O)OCc1ccccc1 (stereo not drawn)
inactive: dose: 10.0 mg/kg/injection, schedule: Q01DX Z (ip), vehicle: saline 96 % of control | dose: 30.0 mg/kg/injection, schedule: Q01DX Z (ip), vehicle: saline 97 % of control | dose: 100.0 mg/kg/injection, schedule: Q01DX Z (ip), vehicle: saline 91 % of control | dose: 300.0 mg/kg/injection, schedule: Q01DX Z (ip), vehicle: saline 97 % of control

COc1ccc2c(OC)cccc2c1
inactive: dose: 100.0 mg/kg/injection, schedule: Q04DX003 (ip), vehicle: other 102 % of control | dose: 200.0 mg/kg/injection, schedule: Q04DX003 (ip), vehicle: other 112 % of control | dose: 400.0 mg/kg/injection, schedule: Q04DX003 (ip), vehicle: other 101 % of control

Nc1ccc(S(=O)(=O)Nc2ccccc2O)cc1
inactive: dose: 3.0 mg/kg/injection, schedule: Q01DX001 (ip), vehicle: saline with Tween-80 103 % of control | dose: 6.25 mg/kg/injection, schedule: Q01DX001 (ip), vehicle: saline with Tween-80 103 % of control | dose: 12.5 mg/kg/injection, schedule: Q01DX001 (ip), vehicle: saline with Tween-80 103 % of control | dose: 25.0 mg/kg/injection, schedule: Q01DX001 (ip), vehicle: saline with Tween-80 102 % of control | dose: 50.0 mg/kg/injection, schedule: Q01DX001 (ip), vehicle: saline with Tween-80 102 % of control

C=Cc1cc[n+](CCCCCC[n+]2ccc(C=C)cc2)cc1
inactive: dose: 100.0 mg/kg/injection, schedule: Q01DX001 (ip), vehicle: saline 92 % of control | dose: 200.0 mg/kg/injection, schedule: Q01DX001 (ip), vehicle: saline 92 % of control | dose: 400.0 mg/kg/injection, schedule: Q01DX001 (ip), vehicle: saline 88 % of control

Nc1ccnc(SCc2ccc3ccccc3c2)n1
inactive: [3] 93 % of control | [13] 101 % of control | [14] 101 % of control

CCCCCCC(=O)/C=C/c1cccc(Cl)c1
inactive: dose: 100.0 mg/kg/injection, schedule: Q04DX003 (ip), vehicle: Klucel (hydroxypropylcellulose) (HPC) 104 % of control | dose: 200.0 mg/kg/injection, schedule: Q04DX003 (ip), vehicle: Klucel (hydroxypropylcellulose) (HPC) 102 % of control | dose: 400.0 mg/kg/injection, schedule: Q04DX003 (ip), vehicle: Klucel (hydroxypropylcellulose) (HPC) 91 % of control

CCC(CC)C(O)C(C)C(C)O (stereo not drawn)
inactive: [7] 91 % of control | [8] 91 % of control | [12] 91 % of control

C(=N\N=C\C1CCc2ccccc21)/c1ccco1 (stereo not drawn)
inactive: [7] 88 % of control | [9] 94 % of control | [10] 93 % of control | [12] 88 % of control | [11] 87 % of control

CC1(C)CC1(Br)Br
inactive: dose: 6.25 mg/kg/injection, schedule: Q01DX009 (ip), vehicle: saline with Tween-80 94 % of control and 112 % of control | dose: 12.5 mg/kg/injection, schedule: Q01DX009 (ip), vehicle: saline with Tween-80 94 % of control and 106 % of control | dose: 25.0 mg/kg/injection, schedule: Q01DX009 (ip), vehicle: saline with Tween-80 102 % of control and 112 % of control | [6] 100 % of control and 110 % of control | [7] 93 % of control and 106 % of control | [8] 97 % of control and 100 % of control

CCN(CC)C(=S)SCc1c(Cl)c(Cl)c(Cl)c(Cl)c1Cl
inactive: [3] 94 % of control | [13] 91 % of control | [14] 97 % of control

COc1cc2ccncc2cc1O
inactive: dose: 25.0 mg/kg/injection, schedule: Q01DX009 (ip), vehicle: water 96 % of control | dose: 50.0 mg/kg/injection, schedule: Q01DX009 (ip), vehicle: water 96 % of control
